Patent US20240090497A1, “SURFACTANT BLENDS FOR HYPOHALITE-BASED DISINFECTING COMPOSITIONS” (GOJO Industries, Inc., priority 2022, published 2024)

Experiment: Surface tension of hypohalite-based disinfecting compositions, Wilhelmy plate method
Format: physicochemical
Conditions: hypohalite-based disinfecting composition with this surfactant alone (0% or 100% point of the blend plot)
Procedure: Various combinations of surfactants were tested with respect to the surface tension of hypohalite-based disinfecting compositions comprising the surfactant blend. Specifically, exemplary blends were prepared using varying surfactants having an average tail chain length of a C10 to C14 value. The surfactant blends were tested at varying molar ratios.
Accordingly, each surfactant blend comprised a first surfactant having a first surfactant surface tension T^1 and a second surfactant having a second surfactant surface tension T^2. The respective overall surface tension T for each surfactant blend was thereafter tested, using the Wilhelmy plate method.

CCCCCCCCCCO[C@@H]1O[C@H](CO)[C@@H](O)[C@H](O)[C@H]1O [decyl glucoside]
individual surfactant surface tension: 28.7 mN/m

CCCCCCCCCCCCOS(=O)(=O)[O-].[Na+] [sodium lauryl sulfate]
individual surfactant surface tension: 29.7 mN/m

CCCCCCCCCCCCCCOS(=O)(=O)[O-].[Na+] [sodium myristyl sulfate]
individual surfactant surface tension: 39.8 mN/m

cocobetaine
individual surfactant surface tension: 34.7 mN/m

lauramine oxide
individual surfactant surface tension: 32.4 mN/m

laureth-6
individual surfactant surface tension: 29.7 mN/m

myristamine oxide
individual surfactant surface tension: 32.1 mN/m

undeceth-3
individual surfactant surface tension: 26.9 mN/m
